{"source": "patent US20260091020A1", "about": "“TREATMENT OF ACUTE CANNABINOID OVERDOSE” (Anebulo Pharmaceuticals, Inc., priority 2022, published 2026)", "experiment": "Plasma PK of ANEB-001 and THC, 30 mg or 10 mg oral Compound 1 with 21 mg THC (Example 4)", "type": "in vivo, human", "settings": "for concentration at 0 h / concentration at 20 min / concentration at 40 min / concentration at 1 h / concentration at 2 h / concentration at 3 h / concentration at 4 h / concentration at 5 h / concentration at 24 h / AUC(0-t) / Cmax / Tmax: human, in vivo; for concentration at 0 h: 00H00M; for concentration at 20 min: 00H20M; for concentration at 40 min: 00H40M; for concentration at 1 h: 01H00M; for concentration at 2 h: 02H00M; for concentration at 3 h: 03H00M; for concentration at 4 h: 04H00M; for concentration at 5 h: 05H00M; for concentration at 24 h: 24H00M; for Tmax: read-out: THC plasma tmax, Median", "description": "Following the general methods of Example 2, the study design was adjusted such that groups received either (a) THC (21 mg)+placebo or (b) THC (21 mg)+Compound 1 (30 mg) (FIG. 14) or either (a) THC (21 mg)+placebo or (b) THC (21 mg)+Compound 1 (10 mg) (FIG. 15). […] Summary of pharmacokinetics of THC with 30 mg ANEB-001 challenge (FIG. 18A and FIG. 18B), AUC after 5 hours (FIG. 18C), AUC last (FIG. 18D) and Cmax (FIG. 18E).\nSummary of pharmacokinetics for 30 mg ANEB-001 and 10 mg ANEB-001 challenge with 21 mg THC administration in plasma (FIGS. 19A and 19B); AUC after 5 hours for 10 mg ANEB-001 and 30 mg ANEB-001 (FIG. 19C), AUC last (FIG. 19D), and Cmax (FIG. 19E).\nAll PK parameter calculations were based on actual sampling time. For calculation of PK parameters, all BLQ concentrations that were between the first and last non-BLQ values were dropped (treated as ‘missing’). For calculation of AUClast and t1/2, additionally all values that were BLQ after the last non-BLQ value were dropped (treated as missing). If data points for concentrations were missing, the AUC parameters were derived by interpolating with regard to the 2 neighboring non-missing concentrations. AUC was calculated using the log-linear trapezoidal rule.\nReporting of drug concentration data. The concentrations are summarized (mean, SD, % CV, median, Min and Max values) by treatment and time, and are also presented graphically as mean over time, with standard deviation as error bars. For graphical and summary purposes of drug concentrations, values below the limit of quantification (BLQ) are set to zero. The SD and CVT are not reported if the mean is 0.\nReporting of PK parameters. The individual PK parameters (except tmax and tlag) are summarized (mean, SD, CV, geometric mean, geometric CV, median, M in and Max) per treatment group and a selection of the PK parameters are presented graphically as boxplots. For tmax and tlag, the median, Min and Max statistics are reported. Boxplots present the median (horizontal solid line), the 25%-75% distribution (IQR), with 1.5× the IQR as whiskers.", "key": {"[1]": {"settings": "21 mg THC + 30 mg ANEB-001, read-out: THC in Plasma (concentration), Mean"}, "[2]": {"settings": "21 mg THC + 30 mg ANEB-001, read-out: THC in Plasma (concentration), Median"}, "[3]": {"settings": "21 mg, 21 mg THC + Placebo, read-out: THC in Plasma (concentration), Mean"}, "[4]": {"settings": "21 mg, 21 mg THC + Placebo, read-out: THC in Plasma (concentration), Median"}}, "note": "Read-outs that look alike come from different tables or passages of the source."}
{"compound": "CCCCCc1cc(O)c2c(c1)OC(C)(C)[C@@H]1CCC(C)=C[C@@H]21", "note": "[THC, Δ9-tetrahydrocannabinol]", "values": [{"measurement": "THC Dose normalized Cmax, GeoMean", "setting": "21 mg THC + 30 mg ANEB-001", "value": 0.4482, "unit": "ng/mL/mg"}, {"measurement": "THC Dose normalized Cmax, Mean", "setting": "21 mg THC + 30 mg ANEB-001", "value": 0.4658, "unit": "ng/mL/mg"}, {"measurement": "THC Dose normalized Cmax, Median", "setting": "21 mg THC + 30 mg ANEB-001", "value": 0.442, "unit": "ng/mL/mg"}, {"measurement": "THC plasma tlag, Median", "setting": "21 mg THC + 30 mg ANEB-001", "value": 0, "unit": "h"}, {"measurement": "THC Dose normalized Cmax, GeoMean", "setting": "21 mg THC + Placebo", "value": 0.2634, "unit": "ng/mL/mg"}, {"measurement": "THC Dose normalized Cmax, Mean", "setting": "21 mg THC + Placebo", "value": 0.2965, "unit": "ng/mL/mg"}, {"measurement": "THC Dose normalized Cmax, Median", "setting": "21 mg THC + Placebo", "value": 0.260, "unit": "ng/mL/mg"}, {"measurement": "THC plasma AUC5H, Mean", "setting": "21 mg THC + Placebo", "value": 14.6, "unit": "ng·h/mL"}, {"measurement": "THC plasma tlag, Median", "setting": "21 mg THC + Placebo", "value": 0, "unit": "h"}, {"measurement": "concentration at 0 h", "setting": "[1]", "value": 0.0163, "unit": "ng/mL"}, {"measurement": "concentration at 0 h", "setting": "[2]", "value": 0, "unit": "ng/mL"}, {"measurement": "concentration at 20 min", "setting": "[1]", "value": 4.16, "unit": "ng/mL"}, {"measurement": "concentration at 20 min", "setting": "[2]", "value": 3.48, "unit": "ng/mL"}, {"measurement": "concentration at 40 min", "setting": "[1]", "value": 8.94, "unit": "ng/mL"}, {"measurement": "concentration at 40 min", "setting": "[2]", "value": 8.4, "unit": "ng/mL"}, {"measurement": "concentration at 1 h", "setting": "[1]", "value": 7.45, "unit": "ng/mL"}, {"measurement": "concentration at 1 h", "setting": "[2]", "value": 7.31, "unit": "ng/mL"}, {"measurement": "concentration at 2 h", "setting": "[1]", "value": 4.07, "unit": "ng/mL"}, {"measurement": "concentration at 2 h", "setting": "[2]", "value": 4.01, "unit": "ng/mL"}, {"measurement": "concentration at 3 h", "setting": "[1]", "value": 2.46, "unit": "ng/mL"}, {"measurement": "concentration at 3 h", "setting": "[2]", "value": 2.03, "unit": "ng/mL"}, {"measurement": "concentration at 4 h", "setting": "[1]", "value": 1.22, "unit": "ng/mL"}, {"measurement": "concentration at 4 h", "setting": "[2]", "value": 1.28, "unit": "ng/mL"}, {"measurement": "concentration at 5 h", "setting": "[1]", "value": 0.744, "unit": "ng/mL"}, {"measurement": "concentration at 5 h", "setting": "[2]", "value": 0.684, "unit": "ng/mL"}, {"measurement": "concentration at 24 h", "setting": "[1]", "value": 0.0551, "unit": "ng/mL"}, {"measurement": "concentration at 24 h", "setting": "[2]", "value": 0, "unit": "ng/mL"}, {"measurement": "AUC(0-t)", "setting": "21 mg THC + 30 mg ANEB-001, read-out: THC plasma AUC5H, GeoMean", "value": 16.3, "unit": "ng·h/mL"}, {"measurement": "AUC(0-t)", "setting": "21 mg THC + 30 mg ANEB-001, read-out: THC plasma AUC5H, Mean", "value": 17, "unit": "ng·h/mL"}, {"measurement": "AUC(0-t)", "setting": "21 mg THC + 30 mg ANEB-001, read-out: THC plasma AUC5H, Median", "value": 16.1, "unit": "ng·h/mL"}, {"measurement": "AUC(0-t)", "setting": "21 mg THC + 30 mg ANEB-001, read-out: THC plasma AUClast, GeoMean", "value": 17.9, "unit": "ng·h/mL"}, {"measurement": "AUC(0-t)", "setting": "21 mg THC + 30 mg ANEB-001, read-out: THC plasma AUClast, Mean", "value": 19.3, "unit": "ng·h/mL"}, {"measurement": "AUC(0-t)", "setting": "21 mg THC + 30 mg ANEB-001, read-out: THC plasma AUClast, Median", "value": 18.4, "unit": "ng·h/mL"}, {"measurement": "Cmax", "setting": "21 mg THC + 30 mg ANEB-001, read-out: THC plasma Cmax, GeoMean", "value": 9.41, "unit": "ng/mL"}, {"measurement": "Cmax", "setting": "21 mg THC + 30 mg ANEB-001, read-out: THC plasma Cmax, Mean", "value": 9.78, "unit": "ng/mL"}, {"measurement": "Cmax", "setting": "21 mg THC + 30 mg ANEB-001, read-out: THC plasma Cmax, Median", "value": 9.28, "unit": "ng/mL"}, {"measurement": "Tmax", "setting": "21 mg THC + 30 mg ANEB-001", "value": 40.2, "unit": "min"}, {"measurement": "concentration at 0 h", "setting": "[3]", "value": 0, "unit": "ng/mL"}, {"measurement": "concentration at 0 h", "setting": "[4]", "value": 0, "unit": "ng/mL"}, {"measurement": "concentration at 20 min", "setting": "[3]", "value": 2.22, "unit": "ng/mL"}, {"measurement": "concentration at 20 min", "setting": "[4]", "value": 2.01, "unit": "ng/mL"}, {"measurement": "concentration at 40 min", "setting": "[3]", "value": 6.1, "unit": "ng/mL"}, {"measurement": "concentration at 40 min", "setting": "[4]", "value": 5.46, "unit": "ng/mL"}, {"measurement": "concentration at 1 h", "setting": "[3]", "value": 5.78, "unit": "ng/mL"}, {"measurement": "concentration at 1 h", "setting": "[4]", "value": 5.47, "unit": "ng/mL"}, {"measurement": "concentration at 2 h", "setting": "[3]", "value": 2.85, "unit": "ng/mL"}, {"measurement": "concentration at 2 h", "setting": "[4]", "value": 1.86, "unit": "ng/mL"}, {"measurement": "concentration at 3 h", "setting": "[3]", "value": 3.23, "unit": "ng/mL"}, {"measurement": "concentration at 3 h", "setting": "[4]", "value": 1.47, "unit": "ng/mL"}, {"measurement": "concentration at 4 h", "setting": "[3]", "value": 1.66, "unit": "ng/mL"}, {"measurement": "concentration at 4 h", "setting": "[4]", "value": 0.894, "unit": "ng/mL"}, {"measurement": "concentration at 5 h", "setting": "[3]", "value": 1.06, "unit": "ng/mL"}, {"measurement": "concentration at 5 h", "setting": "[4]", "value": 0.456, "unit": "ng/mL"}, {"measurement": "concentration at 24 h", "setting": "[3]", "value": 0.0206, "unit": "ng/mL"}, {"measurement": "concentration at 24 h", "setting": "[4]", "value": 0, "unit": "ng/mL"}, {"measurement": "AUC(0-t)", "setting": "21 mg, 21 mg THC + Placebo, read-out: THC plasma AUC5H, GeoMean", "value": 12, "unit": "ng·h/mL"}, {"measurement": "AUC(0-t)", "setting": "21 mg, 21 mg THC + Placebo, read-out: THC plasma AUC5H, Median", "value": 9.32, "unit": "ng·h/mL"}, {"measurement": "AUC(0-t)", "setting": "21 mg, 21 mg THC + Placebo, read-out: THC plasma AUClast, GeoMean", "value": 13, "unit": "ng·h/mL"}, {"measurement": "AUC(0-t)", "setting": "21 mg, 21 mg THC + Placebo, read-out: THC plasma AUClast, Mean", "value": 18.3, "unit": "ng·h/mL"}, {"measurement": "AUC(0-t)", "setting": "21 mg, 21 mg THC + Placebo, read-out: THC plasma AUClast, Median", "value": 9.32, "unit": "ng·h/mL"}, {"measurement": "Cmax", "setting": "21 mg, 21 mg THC + Placebo, read-out: THC plasma Cmax, GeoMean", "value": 5.53, "unit": "ng/mL"}, {"measurement": "Cmax", "setting": "21 mg, 21 mg THC + Placebo, read-out: THC plasma Cmax, Mean", "value": 6.23, "unit": "ng/mL"}, {"measurement": "Cmax", "setting": "21 mg, 21 mg THC + Placebo, read-out: THC plasma Cmax, Median", "value": 5.47, "unit": "ng/mL"}, {"measurement": "Tmax", "setting": "21 mg THC + Placebo", "value": 40.2, "unit": "min"}]}
